# In US8119672B2, “Compounds, compositions and methods for treating or preventing pneumovirus infection and associated diseases” (Microdose Therapeutx, Inc., priority 2002, dated 2012):
# Test: Solubility in ethanol/propylene glycol/water (85:10:5)
# Format: physicochemical
# Conditions: R1 in meta position (compound of the invention); ethanol/propylene glycol/water (85:10:5) by volume
# Protocol: The solubilities are measured in ethanol/propylene glycol/water (85:10:5) (proportions are by volume).
row,Compound,Meta Position Solubiity [mg/mL]
1,"3-[[Bis[[5-(5-methyl-1H-tetrazol-1-yl)imino]methyl]-2-hydroxyphenyl]methylene] -N,N-dimethylbenzenesulfonamide [Example 31]",0.08
2,"CCN(CC)c1cccc(C(c2cc(C=Nn3nnnc3C)ccc2O)c2cc(C=Nn3nnnc3C)ccc2O)c1 (stereo not drawn) [Example 20, 2,2′-[[(3-Diethylamino)phenyl]methylene]bis[4-[[(5-methyl-1H-tetrazol-1-yl)imino]methyl]]phenol]",1.45
3,"Cc1nnnn1N=Cc1ccc(O)c(C(c2cccc([N+](=O)[O-])c2)c2cc(C=Nn3nnnc3C)ccc2O)c1 (stereo not drawn) [Example 27, 2,2′-[(3-Nitrophenyl)methylene]bis[4-[[(5-methyl-1H-tetrazol-1-yl)imino]methyl]]phenol]",0.98
4,"CCCc1cccc(C(c2cc(C=Nn3nnnc3C)ccc2O)c2cc(C=Nn3nnnc3C)ccc2O)c1 (stereo not drawn) [Example 1, 2,2′-[(3-Propylphenyl)methylene]bis[4-[[(5-methyl-1H-tetrazol-1-yl)imino]methyl]]phenol]",1.9
5,"Cc1nnnn1N=Cc1ccc(O)c(C(c2cccc(N(C)C)c2)c2cc(C=Nn3nnnc3C)ccc2O)c1 (stereo not drawn) [Example 2, 2,2′-[[(3-Dimethylamino)phenyl]methylene]bis[4-[[(5-methyl-1H-tetrazol-1-yl)imino]methyl]]phenol]",2.10
6,"CCOc1cccc(C(c2cc(C=Nn3nnnc3C)ccc2O)c2cc(C=Nn3nnnc3C)ccc2O)c1 (stereo not drawn) [Example 6, 2,2′-[(3-Ethoxyphenyl)methylene]bis[4-[[(5-methyl-1H-tetrazol-1-yl)imino]methyl]]phenol]",1.85
